Test results reported in ChEMBL document CHEMBL1150784, “Multicopy blaOXA-58 gene as a source of high-level resistance to carbapenems in Acinetobacter baumannii” (2007).
In brackets after ≈: the same amount, converted by molar mass.

Key:
Acinetobacter baumannii [1] = experiment: Antimicrobial activity against carbapenem-resistant Acinetobacter baumannii T183 isolate carrying one bla-OXA58 gene copy by agar dilution method; format: functional
Acinetobacter baumannii [2] = experiment: Antimicrobial activity against carbapenem-resistant Acinetobacter baumannii 193 isolate carrying two bla-OXA58 gene copies by agar dilution method; format: functional
Acinetobacter baumannii [3] = experiment: Antimicrobial activity against carbapenem-resistant Acinetobacter baumannii T193 isolate carrying two bla-OXA58 gene copies by agar dilution method; format: functional
Acinetobacter baumannii [4] = experiment: Antimicrobial activity against carbapenem-resistant Acinetobacter baumannii T186 isolate carrying three bla-OXA58 gene copies by agar dilution method; format: functional
Acinetobacter baumannii [5] = experiment: Antimicrobial activity against carbapenem-resistant Acinetobacter baumannii BM4547 by agar dilution method; format: functional
Acinetobacter baumannii [6] = experiment: Antimicrobial activity against carbapenem-resistant Acinetobacter baumannii 186 isolate carrying three bla-OXA58 gene copies by agar dilution method; format: functional
Acinetobacter baumannii [7] = experiment: Antimicrobial activity against carbapenem-resistant Acinetobacter baumannii 183 isolate carrying one bla-OXA58 gene copy by agar dilution method; format: functional
[8] = molecular target: Beta-lactamase OXA-58 (Acinetobacter baumannii) (UniProt Q2TR58); experiment: Activity of Acinetobacter baumannii […] OXA58 assessed as hydrolytic specific activity per mg of protein
[9] = molecular target: Beta-lactamase OXA-58 (Acinetobacter baumannii) (UniProt Q2TR58); experiment: Activity of OXA58 from Acinetobacter baumannii 183 isolate carrying one bla-OXA58 gene copy assessed as hydrolytic specific activity per mg of protein
[10] = molecular target: Beta-lactamase OXA-58 (Acinetobacter baumannii) (UniProt Q2TR58); experiment: Activity of OXA58 from Acinetobacter baumannii 193 isolate carrying two bla-OXA58 gene copy assessed as hydrolytic specific activity per mg of protein
[11] = molecular target: Beta-lactamase OXA-58 (Acinetobacter baumannii) (UniProt Q2TR58); experiment: Activity of OXA58 from Acinetobacter baumannii T183 isolate carrying one bla-OXA58 gene copy assessed as hydrolytic specific activity per mg of protein
[12] = molecular target: Beta-lactamase OXA-58 (Acinetobacter baumannii) (UniProt Q2TR58); experiment: Activity of OXA58 from Acinetobacter baumannii T193 isolate carrying two bla-OXA58 gene copy assessed as hydrolytic specific activity per mg of protein
[13] = molecular target: Beta-lactamase OXA-58 (Acinetobacter baumannii) (UniProt Q2TR58); experiment: Activity of OXA58 from Acinetobacter baumannii T186 isolate carrying three bla-OXA58 gene copy assessed as hydrolytic specific activity per mg of protein
Klebsiella pneumoniae = experiment: Antimicrobial activity against Klebsiella pneumoniae isolate expressing VIM1 gene; format: functional
[14] = molecular target: Beta-lactamase OXA-58 (Acinetobacter baumannii) (UniProt Q2TR58); experiment: Activity of OXA58 from Acinetobacter baumannii 186 isolate carrying three bla-OXA58 gene copy assessed as hydrolytic specific activity per mg of protein

Beta-lactamase OXA-58 (Acinetobacter baumannii), sequence (Q2TR58 whole entry): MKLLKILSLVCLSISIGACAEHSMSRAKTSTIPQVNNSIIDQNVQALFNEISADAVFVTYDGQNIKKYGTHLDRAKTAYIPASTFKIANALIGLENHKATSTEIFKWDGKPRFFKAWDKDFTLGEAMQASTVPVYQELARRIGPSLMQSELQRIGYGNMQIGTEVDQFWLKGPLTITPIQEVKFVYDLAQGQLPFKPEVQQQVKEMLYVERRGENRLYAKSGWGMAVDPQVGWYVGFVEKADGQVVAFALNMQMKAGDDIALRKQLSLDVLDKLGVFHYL

| SMILES | MIC (Acinetobacter baumannii [1]) [µg/mL] | MIC (Acinetobacter baumannii [2]) [µg/mL] | MIC (Acinetobacter baumannii [3]) [µg/mL] | MIC (Acinetobacter baumannii [4]) [µg/mL] | MIC (Acinetobacter baumannii [5]) [µg/mL] | MIC (Acinetobacter baumannii [6]) [µg/mL] | MIC (Acinetobacter baumannii [7]) [µg/mL] | Activity [8] [U/mg] | Activity [9] [U/mg] | Activity [10] [U/mg] | Activity [11] [U/mg] | Activity [12] [U/mg] | Activity [13] [U/mg] | MIC (Klebsiella pneumoniae) [µg/mL] | Activity [14] [U/mg] |
| --- | --- | --- | --- | --- | --- | --- | --- | --- | --- | --- | --- | --- | --- | --- | --- |
| C[C@@H](O)[C@H]1C(=O)N2C(C(=O)O)=C(S[C@@H]3CN[C@H](C(=O)N(C)C)C3)[C@H](C)[C@H]12 [MEROPENEM] | 3 (≈ 7.82 µM) | 8 (≈ 20.9 µM) | 4 (≈ 10.4 µM) | 8 (≈ 20.9 µM) | 0.5 (≈ 1.3 µM) | 12 (≈ 31.3 µM) | 4 (≈ 10.4 µM) |  |  |  |  |  |  |  |  |
| CC(C)(O/N=C(\C(=O)N[C@@H]1C(=O)N2C(C(=O)[O-])=C(C[n+]3ccccc3)CS[C@H]12)c1csc(N)n1)C(=O)O [CEFTAZIDIME] | 8 (≈ 14.6 µM) |  | 8 (≈ 14.6 µM) | 8 (≈ 14.6 µM) | 4 (≈ 7.32 µM) |  |  | < 0.01 | 0.075 | 0.077 |  |  |  |  |  |
| C[C@@H](O)[C@H]1C(=O)N2C(C(=O)O)=C(SCCNC=N)C[C@H]12 [IMIPENEM ANHYDROUS] | 6 (≈ 20 µM) | 32 (≈ 107 µM) | 16 (≈ 53.4 µM) | 64 (≈ 214 µM) | 0.5 (≈ 1.67 µM) |  | 16 (≈ 53.4 µM) | < 0.01 | 0.165 | 0.227 | 0.303 | 0.365 | 0.388 | 2 (≈ 6.68 µM) | 0.27 |
